Results taken from ChEMBL document CHEMBL1201862, “PubChem BioAssay data set” (2004).
Calls of active or inactive are those of the source.

Tests used:
CAAX prenyl protease 2 = target: T1, CAAX prenyl protease 2 (Saccharomyces cerevisiae S288c, UniProt Q03530); format: biochemical
T1 sequence (Q03530 whole entry): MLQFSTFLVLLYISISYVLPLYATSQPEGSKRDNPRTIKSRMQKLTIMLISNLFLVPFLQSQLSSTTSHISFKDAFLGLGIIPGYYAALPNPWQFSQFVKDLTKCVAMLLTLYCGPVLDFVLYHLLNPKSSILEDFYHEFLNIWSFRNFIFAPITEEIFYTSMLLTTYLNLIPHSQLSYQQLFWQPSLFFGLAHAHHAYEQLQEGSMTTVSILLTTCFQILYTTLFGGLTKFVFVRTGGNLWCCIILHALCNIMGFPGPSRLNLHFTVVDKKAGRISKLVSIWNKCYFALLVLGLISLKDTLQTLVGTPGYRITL

HEK293 = experiment: cells; format: functional, cell-based; conditions: Homo sapiens
[1] = target: T2, Nuclear receptor subfamily 0 group B member 1 (Homo sapiens, UniProt P51843); experiment: Luminescence-based cell-based high throughput dose response assay for inhibitors of the orphan nuclear receptor subfamily 0, group B, member 1 (DAX1; NR0B1). [Related pubchem assays (depositor defined):AID504766, AID504790]; format: functional
T2 sequence (P51843 whole entry): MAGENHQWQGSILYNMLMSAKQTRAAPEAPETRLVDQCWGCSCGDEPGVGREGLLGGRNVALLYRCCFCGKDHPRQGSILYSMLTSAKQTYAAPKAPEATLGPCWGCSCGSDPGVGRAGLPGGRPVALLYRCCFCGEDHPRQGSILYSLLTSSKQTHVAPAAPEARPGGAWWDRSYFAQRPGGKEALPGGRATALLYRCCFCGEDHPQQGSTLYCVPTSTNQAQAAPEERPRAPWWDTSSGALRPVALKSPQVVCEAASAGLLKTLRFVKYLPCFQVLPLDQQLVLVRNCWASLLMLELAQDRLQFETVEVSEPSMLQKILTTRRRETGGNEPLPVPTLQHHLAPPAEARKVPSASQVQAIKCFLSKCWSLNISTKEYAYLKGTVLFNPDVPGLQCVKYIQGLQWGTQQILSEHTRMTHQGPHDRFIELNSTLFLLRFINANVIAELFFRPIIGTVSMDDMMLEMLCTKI

[2] = target: T3, Sentrin-specific protease 8 (Homo sapiens, UniProt Q96LD8); experiment: SENP8 protease inhibitors, SAR follow-up, biochemical, luminescence (AID 504501); format: functional
T3 sequence (Q96LD8 whole entry): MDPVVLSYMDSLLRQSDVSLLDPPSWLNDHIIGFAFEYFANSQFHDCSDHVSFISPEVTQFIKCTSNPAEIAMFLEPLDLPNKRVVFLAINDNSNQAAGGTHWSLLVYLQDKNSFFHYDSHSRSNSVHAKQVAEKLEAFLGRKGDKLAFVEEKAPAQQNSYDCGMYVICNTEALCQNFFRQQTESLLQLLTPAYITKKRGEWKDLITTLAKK

Caspase-3 [3] = target: T4, Caspase-3 (Homo sapiens, UniProt P42574); experiment: caspase-3 inhibitors as off-family protease, SAR follow-up, selectivity assay for SENP protease inhibitor project, biochemical, luminescence, set 2 (AID 588599); format: functional
T4 sequence (P42574 whole entry): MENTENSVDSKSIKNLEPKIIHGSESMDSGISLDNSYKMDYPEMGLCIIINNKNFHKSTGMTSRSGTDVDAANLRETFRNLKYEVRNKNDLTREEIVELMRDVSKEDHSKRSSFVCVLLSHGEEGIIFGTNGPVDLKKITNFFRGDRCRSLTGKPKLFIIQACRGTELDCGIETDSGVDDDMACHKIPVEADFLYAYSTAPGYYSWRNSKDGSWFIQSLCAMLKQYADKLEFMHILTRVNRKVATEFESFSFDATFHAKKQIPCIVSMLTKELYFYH

[4] = target: T3, Sentrin-specific protease 8; experiment: SENP8 protease inhibitors, SAR follow-up, biochemical, luminescence, set 2 (AID 588601); format: functional
Caspase-3 [5] = target: T4, Caspase-3; experiment: SAR Analysis of small molecule inhibitors of Sentrin-specific proteases (SENPs) using a Caspase-3 Selectivity assay. [Related pubchem assays (depositor defined):AID2540, AID2599, AID434973, AID489001]; format: functional
[6] = target: T5, Sentrin-specific protease 7 (Homo sapiens, UniProt Q9BQF6); experiment: SENP7 protease inhibitors, SAR follow-up, biochemical, luminescence, set 2 (AID 588600); format: functional
T5 sequence (Q9BQF6 whole entry): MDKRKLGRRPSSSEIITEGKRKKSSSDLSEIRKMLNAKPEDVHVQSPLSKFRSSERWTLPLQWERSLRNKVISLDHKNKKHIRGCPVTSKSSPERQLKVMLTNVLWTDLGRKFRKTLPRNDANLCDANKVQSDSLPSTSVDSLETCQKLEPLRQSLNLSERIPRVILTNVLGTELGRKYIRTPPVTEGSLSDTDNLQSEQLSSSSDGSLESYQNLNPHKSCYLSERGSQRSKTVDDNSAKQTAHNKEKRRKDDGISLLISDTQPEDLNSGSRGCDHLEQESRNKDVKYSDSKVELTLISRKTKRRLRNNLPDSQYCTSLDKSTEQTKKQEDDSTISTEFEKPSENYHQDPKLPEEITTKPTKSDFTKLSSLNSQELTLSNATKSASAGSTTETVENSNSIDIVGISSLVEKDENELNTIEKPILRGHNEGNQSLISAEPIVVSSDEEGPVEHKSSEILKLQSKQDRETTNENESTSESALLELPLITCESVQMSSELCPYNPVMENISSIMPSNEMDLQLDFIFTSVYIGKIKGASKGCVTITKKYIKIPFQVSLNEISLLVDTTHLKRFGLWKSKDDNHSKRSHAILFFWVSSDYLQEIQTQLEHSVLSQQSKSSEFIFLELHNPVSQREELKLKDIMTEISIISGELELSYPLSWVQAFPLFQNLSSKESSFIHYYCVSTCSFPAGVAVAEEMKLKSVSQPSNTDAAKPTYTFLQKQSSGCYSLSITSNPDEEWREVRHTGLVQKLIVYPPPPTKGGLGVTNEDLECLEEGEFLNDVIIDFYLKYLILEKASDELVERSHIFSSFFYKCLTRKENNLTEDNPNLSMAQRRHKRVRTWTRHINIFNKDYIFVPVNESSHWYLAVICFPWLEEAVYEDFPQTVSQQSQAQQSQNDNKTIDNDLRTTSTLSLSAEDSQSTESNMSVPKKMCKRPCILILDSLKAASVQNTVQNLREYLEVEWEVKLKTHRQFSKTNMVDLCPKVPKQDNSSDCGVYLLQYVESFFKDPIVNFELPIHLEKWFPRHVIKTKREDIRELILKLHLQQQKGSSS

[7] = target: T6, Sentrin-specific protease 6 (Homo sapiens, UniProt Q9GZR1); experiment: SAR Analysis of small molecule inhibitors of Sentrin-specific protease 6 (SENP6) using a Luminescent assay. [Related pubchem assays (depositor defined):AID2582, AID2599]; format: functional
T6 sequence (Q9GZR1 whole entry): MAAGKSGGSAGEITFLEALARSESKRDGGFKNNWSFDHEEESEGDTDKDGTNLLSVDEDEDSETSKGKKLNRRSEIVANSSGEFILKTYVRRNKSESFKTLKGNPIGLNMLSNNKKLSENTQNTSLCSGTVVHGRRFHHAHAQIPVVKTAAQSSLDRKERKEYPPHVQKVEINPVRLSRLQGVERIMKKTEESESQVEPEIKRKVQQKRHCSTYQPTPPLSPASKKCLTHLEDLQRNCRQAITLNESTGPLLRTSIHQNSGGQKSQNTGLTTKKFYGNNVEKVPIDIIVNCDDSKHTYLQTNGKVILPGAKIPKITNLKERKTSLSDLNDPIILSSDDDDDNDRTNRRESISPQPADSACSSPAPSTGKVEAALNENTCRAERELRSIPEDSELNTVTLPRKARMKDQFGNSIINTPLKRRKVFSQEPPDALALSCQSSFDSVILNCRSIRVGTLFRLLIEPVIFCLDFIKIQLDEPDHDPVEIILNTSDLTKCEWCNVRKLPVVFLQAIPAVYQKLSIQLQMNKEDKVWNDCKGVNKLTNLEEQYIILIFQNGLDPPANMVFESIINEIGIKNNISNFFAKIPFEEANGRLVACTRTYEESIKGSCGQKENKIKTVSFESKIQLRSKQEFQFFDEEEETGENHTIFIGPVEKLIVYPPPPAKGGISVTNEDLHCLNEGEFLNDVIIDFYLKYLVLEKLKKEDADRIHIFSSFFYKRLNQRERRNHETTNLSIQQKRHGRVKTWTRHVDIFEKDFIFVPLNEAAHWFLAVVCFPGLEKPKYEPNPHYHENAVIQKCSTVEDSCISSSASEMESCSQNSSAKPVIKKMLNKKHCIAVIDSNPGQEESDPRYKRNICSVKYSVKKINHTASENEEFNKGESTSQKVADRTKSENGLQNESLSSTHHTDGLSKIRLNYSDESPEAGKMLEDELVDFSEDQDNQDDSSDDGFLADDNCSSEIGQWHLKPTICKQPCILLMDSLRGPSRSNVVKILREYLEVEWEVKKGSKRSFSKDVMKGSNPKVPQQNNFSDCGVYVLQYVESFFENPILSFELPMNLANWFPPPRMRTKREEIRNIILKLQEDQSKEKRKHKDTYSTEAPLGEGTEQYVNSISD

[8] = target: T6, Sentrin-specific protease 6; experiment: SENP6 protease inhibitors, SAR follow-up, biochemical, luminescence, set 2 (AID 588598); format: functional
[9] = target: T5, Sentrin-specific protease 7; experiment: SENP7 protease inhibitors, SAR follow-up, biochemical, luminescence (AID 504497); format: functional
[10] = NIH-3T3 fibroblast cytotoxicity, dose response, cytotoxicity control, cell-based, fluorescence, Alamar Blue, secondary assay (AID 2327); format: functional;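 also: NIH-3T3 mouse fibroblasts cultured with fluconazole at 8 µg/mL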
[11] = C. albicans growth with fluconazole, confirmation, fluorescence, retest (AID 2467); format: functional, cell-based
[12] = target: Serine/threonine-protein phosphatase (Candida dubliniensis (strain CD36 / CBS 7987 / NCPF 3949 / NRRLY-17841) (Yeast), UniProt B9W6M3); experiment: calcineurin pathway inhibitors in yeast reporter, dose response, S. cerevisiae, CDRE-lacZ, luminescence, secondary (AID 2388); format: functional, cell-based;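 also: yeast reporter cells carrying a calcineurin-responsive lacZ construct stimulated with calcium chloride; luminescent beta-galactosidase reporter signal in whole cells rather than isolated phosphatase activity; potency for inhibition where a drop in reporter signal means calcineurin blockade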
Chain of Serine/threonine-protein phosphatase (B9W6M3 whole entry): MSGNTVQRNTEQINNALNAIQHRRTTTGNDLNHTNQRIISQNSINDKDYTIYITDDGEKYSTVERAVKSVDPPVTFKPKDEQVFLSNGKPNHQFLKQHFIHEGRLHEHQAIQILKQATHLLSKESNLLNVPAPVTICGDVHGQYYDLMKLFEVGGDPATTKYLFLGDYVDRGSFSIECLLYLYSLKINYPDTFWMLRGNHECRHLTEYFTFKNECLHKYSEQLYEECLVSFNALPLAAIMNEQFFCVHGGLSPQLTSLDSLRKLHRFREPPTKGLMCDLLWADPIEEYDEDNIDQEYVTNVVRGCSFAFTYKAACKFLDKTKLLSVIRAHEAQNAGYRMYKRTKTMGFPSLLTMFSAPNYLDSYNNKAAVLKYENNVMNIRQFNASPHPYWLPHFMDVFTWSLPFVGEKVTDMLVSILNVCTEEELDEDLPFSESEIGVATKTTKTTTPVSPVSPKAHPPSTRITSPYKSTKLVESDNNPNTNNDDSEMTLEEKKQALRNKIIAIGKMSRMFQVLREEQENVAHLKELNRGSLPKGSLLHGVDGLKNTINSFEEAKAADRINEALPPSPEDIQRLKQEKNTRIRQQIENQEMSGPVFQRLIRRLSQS

[13] = target: ATP-dependent molecular chaperone HSP82 (Candida albicans (strain WO-1) (Yeast), UniProt C4YTQ8); experiment: loss of DOC-induced GRE-beta-galactosidase reporter signal, dose response, Hsp90 inhibitor project, S. cerevisiae, luminescence (AID 2400); format: functional, cell-based;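 also: beta-galactosidase luminescence from glucocorticoid response element reporter as proxy for Hsp90 function; inhibitor potency where signal loss means Hsp90 inhibition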
Chain of ATP-dependent molecular chaperone HSP82 (C4YTQ8 whole entry): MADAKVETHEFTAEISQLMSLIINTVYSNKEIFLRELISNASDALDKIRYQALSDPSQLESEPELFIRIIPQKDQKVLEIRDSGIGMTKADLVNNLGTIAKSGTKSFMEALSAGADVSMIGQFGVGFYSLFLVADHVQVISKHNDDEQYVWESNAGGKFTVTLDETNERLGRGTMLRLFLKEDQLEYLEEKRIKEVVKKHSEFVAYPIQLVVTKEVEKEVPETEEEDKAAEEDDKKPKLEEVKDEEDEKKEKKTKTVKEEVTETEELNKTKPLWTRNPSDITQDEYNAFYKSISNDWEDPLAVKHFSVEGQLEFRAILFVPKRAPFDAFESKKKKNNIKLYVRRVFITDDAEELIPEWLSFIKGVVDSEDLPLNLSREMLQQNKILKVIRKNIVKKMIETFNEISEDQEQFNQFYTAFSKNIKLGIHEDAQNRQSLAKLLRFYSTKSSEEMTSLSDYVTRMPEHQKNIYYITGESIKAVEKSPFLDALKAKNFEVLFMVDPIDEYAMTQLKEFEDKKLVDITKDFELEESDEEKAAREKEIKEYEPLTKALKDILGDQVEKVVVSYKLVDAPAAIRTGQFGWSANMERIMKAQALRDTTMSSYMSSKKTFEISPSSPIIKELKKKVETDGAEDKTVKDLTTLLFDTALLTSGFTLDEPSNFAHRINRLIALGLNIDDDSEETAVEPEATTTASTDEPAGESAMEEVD

NIH3T3 = experiment: mammalian cell toxicity, NIH-3T3 fibroblasts, dose response, cytotoxicity control for reversing antifungal drug resistance, Alamar Blue, dry powder, set 3 (AID 488933); format: functional, cell-based; conditions: Mus musculus
Hexokinase-1 = Hexokinase-1 (Homo sapiens, UniProt P19367); experiment: SAR analysis of small molecule inhibitors of hexokinase domain containing I (HKDC1) in the hexokinase 1 selectivity assay. [Related pubchem assays (depositor defined):AID493160, AID493190]; format: functional
Chain of Hexokinase-1 (P19367 whole entry, the tested form may be a part): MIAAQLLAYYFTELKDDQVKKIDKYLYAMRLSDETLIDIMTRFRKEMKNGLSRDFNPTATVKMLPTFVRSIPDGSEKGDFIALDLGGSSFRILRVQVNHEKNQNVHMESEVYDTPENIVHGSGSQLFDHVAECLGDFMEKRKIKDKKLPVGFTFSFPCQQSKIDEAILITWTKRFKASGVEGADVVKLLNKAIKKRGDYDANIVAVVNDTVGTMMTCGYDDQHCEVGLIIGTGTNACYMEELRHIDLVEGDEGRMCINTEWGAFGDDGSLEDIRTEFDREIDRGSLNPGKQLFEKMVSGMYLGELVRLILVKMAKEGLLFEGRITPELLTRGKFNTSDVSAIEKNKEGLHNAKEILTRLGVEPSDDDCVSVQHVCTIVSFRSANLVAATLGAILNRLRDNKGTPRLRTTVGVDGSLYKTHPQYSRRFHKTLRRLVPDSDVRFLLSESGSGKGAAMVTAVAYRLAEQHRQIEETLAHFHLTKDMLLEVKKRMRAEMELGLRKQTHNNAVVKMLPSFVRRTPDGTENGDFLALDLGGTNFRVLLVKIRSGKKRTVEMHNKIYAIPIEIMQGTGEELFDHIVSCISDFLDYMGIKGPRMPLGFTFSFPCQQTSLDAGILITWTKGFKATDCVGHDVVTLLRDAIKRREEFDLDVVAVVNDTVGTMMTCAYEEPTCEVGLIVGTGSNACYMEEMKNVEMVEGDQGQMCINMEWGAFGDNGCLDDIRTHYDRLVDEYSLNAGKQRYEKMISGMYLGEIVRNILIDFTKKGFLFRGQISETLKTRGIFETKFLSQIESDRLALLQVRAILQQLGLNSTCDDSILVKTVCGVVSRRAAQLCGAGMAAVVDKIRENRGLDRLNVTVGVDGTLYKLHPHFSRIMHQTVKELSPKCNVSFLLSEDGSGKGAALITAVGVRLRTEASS

Hexokinase HKDC1 = target: T7, Hexokinase HKDC1 (Homo sapiens, UniProt Q2TB90); experiment: SAR analysis of small molecule inhibitors of hexokinase domain containing I (HKDC1). [Related pubchem assays (depositor defined):AID493160, AID493190]; format: functional
T7 sequence (Q2TB90 whole entry): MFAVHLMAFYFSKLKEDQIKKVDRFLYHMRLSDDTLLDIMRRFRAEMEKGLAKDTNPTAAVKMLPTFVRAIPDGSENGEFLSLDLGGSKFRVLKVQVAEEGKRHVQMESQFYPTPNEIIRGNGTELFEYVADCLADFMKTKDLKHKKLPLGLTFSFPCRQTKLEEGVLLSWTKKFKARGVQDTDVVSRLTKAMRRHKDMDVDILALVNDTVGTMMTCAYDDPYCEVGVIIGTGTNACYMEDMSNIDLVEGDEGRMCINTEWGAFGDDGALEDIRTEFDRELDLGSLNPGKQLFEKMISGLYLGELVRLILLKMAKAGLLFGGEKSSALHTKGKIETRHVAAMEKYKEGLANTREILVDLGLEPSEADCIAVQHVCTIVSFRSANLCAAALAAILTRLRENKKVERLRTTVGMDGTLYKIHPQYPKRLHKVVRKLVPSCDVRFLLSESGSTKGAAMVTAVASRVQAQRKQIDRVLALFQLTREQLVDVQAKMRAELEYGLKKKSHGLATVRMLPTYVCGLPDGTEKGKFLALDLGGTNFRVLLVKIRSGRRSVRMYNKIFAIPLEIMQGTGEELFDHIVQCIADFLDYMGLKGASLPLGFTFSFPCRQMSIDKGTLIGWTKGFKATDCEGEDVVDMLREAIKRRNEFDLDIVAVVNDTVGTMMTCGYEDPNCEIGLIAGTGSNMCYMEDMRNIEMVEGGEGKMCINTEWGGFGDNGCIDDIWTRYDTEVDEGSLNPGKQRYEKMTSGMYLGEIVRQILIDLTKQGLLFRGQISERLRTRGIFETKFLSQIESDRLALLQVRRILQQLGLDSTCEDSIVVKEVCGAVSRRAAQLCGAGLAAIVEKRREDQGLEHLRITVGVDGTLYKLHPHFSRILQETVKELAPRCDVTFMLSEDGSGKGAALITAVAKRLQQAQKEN

INS1 = experiment: caspase-3/7 inhibition in cytokine-treated INS-1E, dose response, beta-cell apoptosis inhibitor project, cell-based, caspase luminescence, dry powder (AID 488848); format: functional; conditions: Rattus norvegicus

O=C(Nc1ccc2c(c1)CCC2)c1ccccc1Br
AC50 (CAAX prenyl protease 2): 8.42 µM (active)
IC50 (HEK293): > 67.6 µM (inactive)
IC50 [1]: > 67.6 µM (inactive)

Oc1ccccc1-c1nc(/C=C/c2ccc(F)cc2)no1
IC50 [2]: > 99 µM (inactive)
IC50 (Caspase-3 [3]): 2.55 µM (active)
IC50 [4]: 1.64 µM (active)
IC50 (Caspase-3 [5]): 5.5 µM (active)
IC50 [6]: 1.87 µM (active)
IC50 [7]: 20 µM (active)
IC50 [8]: 1.53 µM (active)
IC50 [9]: 1.6 µM (active)

COc1cccc(C2CC(c3ccc(NS(C)(=O)=O)cc3)=NN2C(=O)c2ccccc2)c1OC (centres undefined)
EC50 [10]: > 150 µM (inactive)
EC50 [11]: 1.17 µM (active)
EC50 [12]: > 180 µM (inactive)
EC50 [13]: > 150 µM (inactive)

O=C(c1ccccc1)N1CCN(c2ccccn2)CC1
AC50 (NIH3T3): 184 µM (active)

O=c1c2ccccc2nc(/C=C/c2ccc(Cl)cc2)n1Cc1ccccc1
IC50 (Hexokinase-1): > 80 µM (inactive)
IC50 (Hexokinase HKDC1): > 80 µM (inactive)

COc1ccc(S(=O)(=O)N(C)C[C@@H]2Oc3c(NC(=O)Nc4cccc5c4CCCC5)cccc3C(=O)N([C@@H](C)CO)C[C@H]2C)cc1
AC50 (INS1): 52.3 µM (active)
